Assay results taken from publication PMC10866072, “Design, synthesis, molecular modelling and biological evaluation of novel 6-amino-5-cyano-2-thiopyrimidine derivatives as potent anticancer agents against leukemia and apoptotic inducers” (Journal of Enzyme Inhibition and Medicinal Chemistry, 2024).

Legend:
NCI/ADR-RES = format: cell-based; conditions: one dose 10^-5 M, 48 h
SK-MEL-5 = format: cell-based; conditions: one dose 10^-5 M, 48 h
BT-549 = format: cell-based; conditions: one dose 10^-5 M, 48 h
A498 = format: cell-based; conditions: one dose 10^-5 M, 48 h
PC-3 = format: cell-based; conditions: one dose 10^-5 M, 48 h
MDA-MB-435 = format: cell-based; conditions: one dose 10^-5 M, 48 h
SF-539 = format: cell-based; conditions: one dose 10^-5 M, 48 h
NCI-H522 = format: cell-based; conditions: one dose 10^-5 M, 48 h
SK-MEL-28 = format: cell-based; conditions: one dose 10^-5 M, 48 h
OVCAR-3 = format: cell-based; conditions: one dose 10^-5 M, 48 h
TK-10 = format: cell-based; conditions: one dose 10^-5 M, 48 h
HCT-15 = format: cell-based; conditions: one dose 10^-5 M, 48 h
RPMI-8226 = format: cell-based; conditions: one dose 10^-5 M, 48 h
SF-295 = format: cell-based; conditions: one dose 10^-5 M, 48 h
K-562 = format: cell-based; conditions: one dose 10^-5 M, 48 h
NCI-H23 = format: cell-based; conditions: one dose 10^-5 M, 48 h
HOP-62 = format: cell-based; conditions: one dose 10^-5 M, 48 h
IGROV1 = format: cell-based; conditions: one dose 10^-5 M, 48 h
DU-145 = format: cell-based; conditions: one dose 10^-5 M, 48 h
786-0 = format: cell-based; conditions: one dose 10^-5 M, 48 h
SNB-75 = format: cell-based; conditions: one dose 10^-5 M, 48 h
COLO 205 = format: cell-based; conditions: one dose 10^-5 M, 48 h
SR = format: cell-based; conditions: one dose 10^-5 M, 48 h
SF-268 = format: cell-based; conditions: one dose 10^-5 M, 48 h
HL-60(TB) = format: cell-based; conditions: one dose 10^-5 M, 48 h
HT29 = format: cell-based; conditions: one dose 10^-5 M, 48 h
OVCAR-5 = format: cell-based; conditions: one dose 10^-5 M, 48 h
SN12C = format: cell-based, human; conditions: one dose 10^-5 M, 48 h
HCC-2998 = format: cell-based; conditions: one dose 10^-5 M, 48 h
U251 = format: cell-based; conditions: one dose 10^-5 M, 48 h
MDA-MB-231/ATCC = format: cell-based; conditions: one dose 10^-5 M, 48 h
UACC-62 = format: cell-based; conditions: one dose 10^-5 M, 48 h
T-47D = format: cell-based; conditions: one dose 10^-5 M, 48 h
KM12 = format: cell-based; conditions: one dose 10^-5 M, 48 h
OVCAR-8 = format: cell-based; conditions: one dose 10^-5 M, 48 h
MOLT-4 = format: cell-based; conditions: one dose 10^-5 M, 48 h
HS 578T = format: cell-based; conditions: one dose 10^-5 M, 48 h; HS 578T
MDA-MB-468 = format: cell-based; conditions: one dose 10^-5 M, 48 h
MALME-3M = format: cell-based; conditions: one dose 10^-5 M, 48 h
HOP-92 = format: cell-based; conditions: one dose 10^-5 M, 48 h
UO-31 = format: cell-based; conditions: one dose 10^-5 M, 48 h
CAKI-1 = format: cell-based; conditions: one dose 10^-5 M, 48 h
LOX IMVI = format: cell-based; conditions: one dose 10^-5 M, 48 h
NCI-H226 = format: cell-based; conditions: one dose 10^-5 M, 48 h
A549/ATCC = format: cell-based; conditions: one dose 10^-5 M, 48 h
MCF7 = format: cell-based; conditions: one dose 10^-5 M, 48 h
M14 = format: cell-based; conditions: one dose 10^-5 M, 48 h
OVCAR-4 = format: cell-based; conditions: one dose 10^-5 M, 48 h
SK-MEL-2 = format: cell-based; conditions: one dose 10^-5 M, 48 h
EKVX = format: cell-based; conditions: one dose 10^-5 M, 48 h
UACC-257 = format: cell-based; conditions: one dose 10^-5 M, 48 h
CCRF-CEM = format: cell-based; conditions: one dose 10^-5 M, 48 h
HCT-116 = format: cell-based; conditions: one dose 10^-5 M, 48 h
SNB-19 = format: cell-based; conditions: one dose 10^-5 M, 48 h
NCI-H460 = format: cell-based; conditions: one dose 10^-5 M, 48 h
SW-620 = format: cell-based; conditions: one dose 10^-5 M, 48 h
ACHN = format: cell-based; conditions: one dose 10^-5 M, 48 h
[1] = system: full NCI 60 cell lines panel
SK-OV-3 = format: cell-based; conditions: one dose 10^-5 M, 48 h

4-Amino-6-[4-(dimethylamino)phenyl]-2-mercaptopyrimidine-5-carboximidohydrazide [Compound 2a]
% growth (NCI/ADR-RES): 104.56%
% growth (SK-MEL-5): 104.41%
% growth (BT-549): 106.15%
% growth (A498): 129.90%
% growth (PC-3): 87.24%
% growth (MDA-MB-435): 114.53%
% growth (SF-539): 107.89%
% growth (NCI-H522): 100.34%
% growth (SK-MEL-28): 108.97%
% growth (OVCAR-3): 105.79%
% growth (TK-10): 112.54%
% growth (HCT-15): 103.47%
% growth (RPMI-8226): 98.02%
% growth (SF-295): 112.06%
% growth (K-562): 103.46%
% growth (NCI-H23): 104.78%
% growth (HOP-62): 107.78%
% growth (IGROV1): 109.01%
% growth (DU-145): 111.10%
% growth (786-0): 105.86%
% growth (SNB-75): 115.82%
% growth (COLO 205): 134.76%
% growth (SR): 102.70%
% growth (SF-268): 101.57%
% growth (HL-60(TB)): 99.62%
% growth (HT29): 107.55%
% growth (OVCAR-5): 116.97%
% growth (SN12C): 106.67%
% growth (HCC-2998): 114.82%
% growth (U251): 106.99%
% growth (MDA-MB-231/ATCC): 103.57%
% growth (UACC-62): 96.91%
% growth (T-47D): 99.52%
% growth (KM12): 103.89%
% growth (OVCAR-8): 116.82%
% growth (MOLT-4): 109.54%
% growth (HS 578T): 111.82%
% growth (MDA-MB-468): 117.68%
% growth (MALME-3M): 100.97%
% growth (HOP-92): 114.12%
% growth (UO-31): 69.66%
% growth (CAKI-1): 93.33%
% growth (LOX IMVI): 101.99%
% growth (NCI-H226): 96.50%
% growth (A549/ATCC): 107.34%
% growth (MCF7): 86.35%
% growth (M14): 103.05%
% growth (OVCAR-4): 96.78%
% growth (SK-MEL-2): 117.18%
% growth (EKVX): 95.76%
% growth (UACC-257): 109.40%
% growth (CCRF-CEM): 91.59%
% growth (HCT-116): 103.97%
% growth (SNB-19): 101.46%
% growth (NCI-H460): 102.69%
% growth (SW-620): 105.68%
% growth (ACHN): 99.26%
activity on all 60 cancer cell lines tested (in words) ([1]; one dose): weak activity
Mean % growth ([1]; one dose 10^-5 M, 48 h, mean over all cell lines): 105.50%
% growth (SK-OV-3): 120.70%
